Legend:
Assay type in all cases: cell-based
[1] = system: p-Akt 1/2/3 (Ser473) in MCF-7 cells; test: AlphaLISA Ultra pAKT assay; conditions: Homo sapiens, 1.5 h; MCF7 cells, 90 min
How it was run: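 MCF-7 cells (16,000˜20,000 per well in 36 μL medium) were seeded in Corning 3701 plates for 20˜24 hour, refreshed with new medium for 90 minutes, then given 12 μL of 4× compound (0.5% final DMSO). Cells were lysed with 2× lysis buffer, and lysate was analyzed by AlphaLISA Ultra pAKT using acceptor and donor beads, read on an EnSpire reader.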

mTORC1 over mTORC2 = mTORC1 over mTORC2 selectivity by comparing pS6K1 and pAKT IC50; conditions: by comparing pS6K1 and pAKT IC50, 90 min
How it was run: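 MCF-7 cells were treated with compounds (0.5% final DMSO) for 90 minutes in one protocol and 2 hours in the other, then lysed. Phospho-signal in lysates was read by bead-based donor/acceptor proximity assay. pS6K1 and pAKT IC50 values were compared to judge mTORC1 over mTORC2 selectivity, at 90 min and at 24 hrs.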

[2] = system: p-p70 S6 Kinase (Thr389) in MCF-7 cells; test: AlphaLISA Ultra pS6K1 assay; conditions: Homo sapiens, 1.5 h; MCF7 cells, 90 min
How it was run: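 MCF-7 cells seeded 20–24 h, given fresh medium 2 h, then treated with compounds 90 min (0.5% DMSO final). Cells lysed, lysates frozen at −80 °C, then Thr389-phosphorylated S6K1 detected by AlphaLISA Ultra with acceptor beads 2 h, then donor beads 2 h.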

IC50 [1] | IC50 [2] | SMILES | mTORC1 selective @ 90 min (mTORC1 over mTORC2)
≥ 1000 nM | < 1 nM | CO[C@@H]1C[C@H](C[C@@H](C)[C@@H]2CC(=O)[C@H](C)/C=C(\C)[C@@H](O)[C@@H](OC)C(=O)[C@H](C)C[C@H](C)/C=C/C=C/C=C(\C)C(OCCOC3CCOCC3)C[C@@H]3CC[C@@H](C)[C@@](O)(O3)C(=O)C(=O)N3CCCC[C@H]3C(=O)O2)CC[C@H]1OP(C)(C)=O (stereo partly drawn) [I-86, (1R,9S,12S,15R,16E,18R,19R,21R,23S,24E,26E,28E,32S,35R)-12-[(1R)-2-[(1S,3R,4R)-4-dimethylphosphoryloxy-3-methoxy-cyclohexyl]-1-methyl-ethyl]-1,18-dihydroxy-19-methoxy-15,17,21,23,29,35-hexamethyl-30-(2-tetrahydropyran-4-yloxyethoxy)-11,36-dioxa-4-azatricyclo[30.3.1.0^4,9]hexatriaconta-16,24,26,28-tetraene-2,3,10,14,20-pentone] | Yes
≥ 1000 nM | 1 to 10 nM | CO[C@@H]1C[C@H](C[C@@H](C)[C@@H]2CC(=O)[C@H](C)/C=C(\C)[C@@H](O)[C@@H](OC)C(=O)[C@H](C)C[C@H](C)/C=C/C=C/C=C(\C)C(OCCOC3COC3)C[C@@H]3CC[C@@H](C)[C@@](O)(O3)C(=O)C(=O)N3CCCC[C@H]3C(=O)O2)CC[C@H]1O (stereo partly drawn) [I-88, (23E,25E,27E,28E,32R,33S,34R,35R,37S,39S,41R,42S,44R,45R,54R)-44,54-dihydroxy-42-[(1R)-2-[(1S,3R,4R)-4-hydroxy-3-methoxy-cyclohexyl]-1-methyl-ethyl]-45-methoxy-32,33,34,35,46,47-hexamethyl-41-[2-(oxetan-3-yloxy)ethoxy]-65,66-dioxa-55-azatricyclohexatriaconta-23,25,27(46),28(47)-tetraene-48,49,50,51,52-pentone] | Yes
≥ 1000 nM | 1 to 10 nM | CO[C@@H]1C[C@H](C[C@@H](C)[C@@H]2CC(=O)[C@H](C)/C=C(\C)[C@@H](O)[C@@H](OC)C(=O)[C@H](C)C[C@H](C)/C=C/C=C/C=C(\C)C(OCCOC3COC3)C[C@@H]3CC[C@@H](C)[C@@](O)(O3)C(=O)C(=O)N3CCCC[C@H]3C(=O)O2)CC[C@H]1OP(C)(C)=O (stereo partly drawn) [I-89, (1R,9S,12S,15R,16E,18R,19R,21R,23S,24E,26E,28E,32S,35R)-12-[(1R)-2-[(1S,3R,4R)-4-dimethylphosphoryloxy-3-methoxy-cyclohexyl]-1-methyl-ethyl]-1,18-dihydroxy-19-methoxy-15,17,21,23,29,35-hexamethyl-30-[2-(oxetan-3-yloxy)ethoxy]-11,36-dioxa-4-azatricyclo[30.3.1.04,9]hexatriaconta-16,24,26,28-tetraene-2,3,10,14,20-pentone] | Yes
≥ 1000 nM | 10 to 100 nM | CNCCOCCOC1C[C@@H]2CC[C@@H](C)[C@@](O)(O2)C(=O)C(=O)N2CCCC[C@H]2C(=O)O[C@H]([C@H](C)C[C@@H]2CC[C@@H](OC)[C@H](OC)C2)CC(=O)[C@H](C)/C=C(\C)[C@@H](OC)[C@@H](OC)C(=O)[C@H](C)C[C@H](C)/C=C/C=C/C=C/1C (stereo partly drawn) [I-90, (24E,26E,28E,29E,35R,36S,37R,38R,40S,42S,45S,46R,47R,56R)-45-[(1R)-2-[(1S,3R,4R)-3,4-dimethoxycyclohexyl]-1-methyl-ethyl]-56-hydroxy-46,47-dimethoxy-35,36,37,38,48,49-hexamethyl-44-[2-[2-(methylamino)ethoxy]ethoxy]-65,66-dioxa-58-azatricyclohexatriaconta-24,26,28(48),29(49)-tetraene-50,51,52,53,54-pentone] | Yes

The next lines start with the compound.

SMILES | IC50 [1] | IC50 [2] | mTORC1 selective @ 90 min (mTORC1 over mTORC2)
CO[C@@H]1C[C@H](C[C@@H](C)[C@@H]2CC(=O)[C@H](C)/C=C(\C)[C@@H](O)[C@@H](OC)C(=O)[C@H](C)C[C@H](C)/C=C/C=C/C=C(\C)[C@@H](OCCOC3COC3)C[C@@H]3CC[C@@H](C)[C@@](O)(O3)C(=O)C(=O)N3CCCC[C@H]3C(=O)O2)CC[C@H]1OP(C)(C)=O [I-78, (1R,9S,12S,15R,16E,18R,19R,21R,23S,24E,26E,28E,30S,32S,35R)-12-[(1R)-2-[(1S,3R,4R)-4-dimethylphosphoryloxy-3-methoxy-cyclohexyl]-1-methyl-ethyl]-1,18-dihydroxy-19-methoxy-15,17,21,23,29,35-hexamethyl-30-[2-(oxetan-3-yloxy)ethoxy]-11,36-dioxa-4-azatricyclo[30.3.1.0^4,9]hexatriaconta-16,24,26,28-tetraene-2,3,10,14,20-pentone] | ≥ 1000 nM | < 1 nM | Yes
COCCO[C@@H]1CC[C@@H](C[C@@H](C)[C@@H]2CC(=O)[C@H](C)/C=C(\C)[C@@H](O)[C@@H](OC)C(=O)[C@H](C)C[C@H](C)/C=C/C=C/C=C(\C)C(OC[C@H]3COCCO3)C[C@@H]3CC[C@@H](C)[C@@](O)(O3)C(=O)C(=O)N3CCCC[C@H]3C(=O)O2)C[C@H]1OC (stereo partly drawn) [I-79, (1R,9S,12S,15R,16E,18R,19R,21R,23S,24E,26E,28E,32S,35R)-30-[[(2R)-1,4-dioxan-2-yl]methoxy]-1,18-dihydroxy-19-methoxy-12-[(1R)-2-[(1S,3R,4R)-3-methoxy-4-(2-methoxyethoxy)cyclohexyl]-1-methyl-ethyl]-15,17,21,23,29,35-hexamethyl-11,36-dioxa-4-azatricyclo[30.3.1.0^4,9]hexatriaconta-16,24,26,28-tetraene-2,3,10,14,20-pentone] | ≥ 1000 nM | 1 to 10 nM | Yes
CO[C@@H]1/C(C)=C/[C@@H](C)C(=O)C[C@@H]([C@H](C)C[C@@H]2CC[C@@H](OCCO)[C@H](OC)C2)OC(=O)[C@@H]2CCCCN2C(=O)C(=O)[C@]2(O)O[C@@H](CC[C@H]2C)CC(OCCOCCOC2COC2)/C(C)=C/C=C/C=C/[C@@H](C)C[C@@H](C)C(=O)[C@@H]1OC (stereo partly drawn) [I-80, (1R,9S,12S,15R,16E,18R,19R,21R,23S,24E,26E,28E,32S,35R)-1-hydroxy-12-[(1R)-2-[(1S,3R,4R)-4-(2-hydroxyethoxy)-3-methoxy-cyclohexyl]-1-methyl-ethyl]-18,19-dimethoxy-15,17,21,23,29,35-hexamethyl-30-[2-[2-(oxetan-3-yloxy)ethoxy]ethoxy]-11,36-dioxa-4-azatricyclo[30.3.1.0^4,9]hexatriaconta-16,24,26,28-tetraene-2,3,10,14,20-pentone] | ≥ 1000 nM | 10 to 100 nM | Yes
COCCO[C@@H]1CC[C@@H](C[C@@H](C)[C@@H]2CC(=O)[C@H](C)/C=C(\C)[C@@H](OC)[C@@H](OC)C(=O)[C@H](C)C[C@H](C)/C=C/C=C/C=C(\C)C(OCCOCCOC3COC3)C[C@@H]3CC[C@@H](C)[C@@](O)(O3)C(=O)C(=O)N3CCCC[C@H]3C(=O)O2)C[C@H]1OC (stereo partly drawn) [I-81, (1R,9S,12S,15R,16E,18R,19R,21R,23S,24E,26E,28E,32S,35R)-1-hydroxy-18,19-dimethoxy-12-[(1R)-2-[(1S,3R,4R)-3-methoxy-4-(2-methoxyethoxy)cyclohexyl]-1-methyl-ethyl]-15,17,21,23,29,35-hexamethyl-30-[2-[2-(oxetan-3-yloxy)ethoxy]ethoxy]-11,36-dioxa-4-azatricyclo[30.3.1.0^4,9]hexatriaconta-16,24,26,28-tetraene-2,3,10,14,20-pentone] | ≥ 1000 nM | 10 to 100 nM | Yes
COCCO[C@@H]1CC[C@@H](C[C@@H](C)[C@@H]2CC(=O)[C@H](C)/C=C(\C)[C@@H](OC)[C@@H](OC)C(=O)[C@H](C)C[C@H](C)/C=C/C=C/C=C(\C)[C@H](OCCOC3COC3)C[C@@H]3CC[C@@H](C)[C@@](O)(O3)C(=O)C(=O)N3CCCC[C@H]3C(=O)O2)C[C@H]1OC [I-82, (1R,9S,12S,15R,16E,18R,19R,21R,23S,24E,26E,28E,30R,32S,35R)-1-hydroxy-18,19-dimethoxy-12-[(1R)-2-[(1S,3R,4R)-3-methoxy-4-(2-methoxyethoxy)cyclohexyl]-1-methyl-ethyl]-15,17,21,23,29,35-hexamethyl-30-[2-(oxetan-3-yloxy)ethoxy]-11,36-dioxa-4-azatricyclo[30.3.1.0^4,9]hexatriaconta-16,24,26,28-tetraene-2,3,10,14,20-pentone] | ≥ 1000 nM | 10 to 100 nM | Yes
CO[C@@H]1C[C@H](C[C@@H](C)[C@@H]2CC(=O)[C@H](C)/C=C(\C)[C@@H](O)[C@@H](OC)C(=O)[C@H](C)C[C@H](C)/C=C/C=C/C=C(\C)[C@H](OC[C@@H]3COCCO3)C[C@@H]3CC[C@@H](C)[C@@](O)(O3)C(=O)C(=O)N3CCCC[C@H]3C(=O)O2)CC[C@H]1OCCO [I-84, (1R,9S,12S,15R,16E,18R,19R,21R,23S,24E,26E,28E,30R,32S,35R)-30-[[(2S)-1,4-dioxan-2-yl]methoxy]-1,18-dihydroxy-12-[(1R)-2-[(1S,3R,4R)-4-(2-hydroxyethoxy)-3-methoxy-cyclohexyl]-1-methyl-ethyl]-19-methoxy-15,17,21,23,29,35-hexamethyl-11,36-dioxa-4-azatricyclo[30.3.1.04,9]hexatriaconta-16,24,26,28-tetraene-2,3,10,14,20-pentone] | ≥ 1000 nM | 1 to 10 nM | Yes
